Results: patent US6767890B1, “Peptides having anti-cancer and anti-inflammatory activity” (priority 1998, dated 2004)
Where “and” joins values, the source holds several entries; their conditions need not be identical. Equal values may be shown once.

How the values were obtained:
Sarcoma 180 tumor = assay: Anti-Cancer Activity Against Mouse Tumor Sarcoma 180; assay type: in vivo; conditions: 10 mg/kg
Experimental: This model has been used extensively as indicative of neovascularization in mammals inasmuch as the tumor so implanted is quickly vascularizing.
Experimental Design: All mice were weighed at test initiation and test termination. The animals were divided into three groups. The Sarcoma 180 tumor was made up from a passage mouse to furnish […] per 0.1 mL inoculum. The cells were injected into the left leg hamstring muscle mass. The was delivered to the mice by I.P. injections, or gavage on days 1-5.
At the termination of the experiments, the mice were weighed and the left rear leg was amputated at the thigh. The skin was removed from the leg to expose the site at which the tumor was located. […].

[1] = tested on: ovalbumin-induced bronchoconstriction; assay: Pulmonary, Histamine H3 (ovalbumin-induced bronchoconstriction); assay type: in vivo, guinea pig; conditions: Peptide PO 10 mg/kg, R-α-methylhistamine IV 30 mg/kg
Experimental: (§1) For in vivo assay, distilled water and saline was used as vehicle in oral and intraperitoneal administration, respectively. Dosing volume was 20 ml/kg for mice or 10 ml/kg for rats.
A group of Duncan Hartley derived male or female guinea pigs weighing 250±50 gms were anesthetized with pentobarbital sodium (50 mg/kg IP plus an additional 15 mg/kg IP if required) and succinylcholine chloride (2 mg/animal IP) was subsequently administered to prevent spontaneous respiration. Body temperature was maintained at 37° to 38° C. The trachea was cannulated and the guinea pig ventilated with a Harvard rodent respirator in a closed system. Tracheal pressure (TP) was recorded through a side-arm of the cannula connected to a P23ID Statham transducer. Respiratory rate set at 50 strokes/minute with a stroke volume (approximately 1 ml/100 g) sufficient to produce a baseline tracheal pressure of 6 cm H2O. Mean arterial pressure was monitored from a cannulated carotid artery, and heart rate was obtained from chest electrodes arranged for lead II. The jugular vein was cannulated for IV vehicle or drug administration in a volume of 1 ml/kg. Guinea pigs were sensitized with IP injections of ovalbumin 0.5 μg+Al(OH)3 1 mg (0.5 ml/animal) on days 1, and boosted with same dosage of ovalbumin and Al(OH)3 vaccine on day 8; and the animals were ready to be challenged between days 19 and 23 to get a submaximal ovalbumin (50 μg/kg IV)-induced bronchoconstriction, reflected as an increase in tracheal pressure (cm H2O). […]. Test substances were administered PO (10 mg/kg) at 60 minutes before ovalbumin (50 μg/kg IV) challenge in 3 guinea pigs. Tracheal pressure, blood pressure and heart rate were measured immediately before and after ovalbumin challenge.

histamine H3 receptor = target: T1, histamine H3 receptor (Cavia porcellus, UniProt Q9JI35); assay: Histamine H3 Agonism/Antagonism, guinea pig ileum; assay type: cell-based; conditions: Peptide 30 μM, Thioperamide 0.3 μM; for Agonism, Ave.: R(α)-Methylhistamine 0.3 μM; for Agonism: relaxation within 5 minutes relative to 0.3 μM R-α-methylhistamine, R(α)-Methylhistamine 0.3 μM (0.1 printed in r13)
T1 construct: ileum obtained from Duncan Hartley derived male or female guinea pigs; from tissue; host or cells: guinea pig ileum segment, field-stimulated
Experimental: A segment of ileum obtained from Duncan Hartley derived male or female guinea pigs weighing 325±25 gms and sacrificed by CO2 overexposure were used. The tissue was placed under 0.5 g tension in a 10 ml bath containing Kreb's solution pH 7.4 and pyrilamine (0.3 μM) at 32° C. and subjected to field stimulation (70% of maximum voltage, 0.1 Hz, 0.5 millisecond). Test substance (30 μM)-induced reduction of isometrically recorded contractions 50 percent or more (≧50%) within 5 minutes, relative to control 0.3 μM R-α-methylhistamine response, indicated possible histamine H3 receptor agonist activity. At a test substance concentration where no significant agonist activity was seen, ability to inhibit R-α-methylhistamine-induced response by 50 percent or more (≧50%) indicated histamine H3 receptor antagonist activity. Each concentration was tested on two separate preparations.

[2] = tested on: DNBS-induced distal colitis; assay: Inflammation, Inflammatory Bowel Disease (DNBS distal colitis); assay type: in vivo, rat; conditions: PO, Peptide 30 mg/kg × 7, Sulfasalazine 300 mg/kg × 7
Experimental: as §1
Groups of 3 Sprague-Dawley derived male rats weighing 150±20 gms and fasted for 24 hours were used. Distal colitis was induced by intra-colonic instillation of DNBS (2,4-dinitrobenzene sulfonic acid, 30 mg in 0.5 ml ethanol 30%) after which air (2 ml) was gently injected through the cannula to ensure that the solution remains in the colon. Test substance was administered PO (30 mg/kg) at 24 and 2 hours before DNBS instillation. Then, the animals received test compound every 24 hours for 5 consecutive days. The control group was given vehicle alone as compound dosing pattern. The animals were sacrificed 24 hours after the final dose of test compound administration and each colon was removed and weighed. Colon-to-body weight ratio was obtained from the percentage of the comparison between the animal colon weight and body weight on the 8th day. A 30 percent or more (±30%) reduction in colon-to-body weight ratio relative to the vehicle treated control group was considered significant.

[3] = tested on: Adjuvant Induced Arthritis; assay: Adjuvant Induced Arthritis Model; assay type: in vivo; conditions: rat, 20 mg per KG body weight orally once per day for 14 days, Day 14
Experimental: Adjuvant Induced Arthritis Model: Male Sprague-Dawley rats (160-180 g) were sensitized by injecting Fruend's Complete Adjuvant (0.5% suspension of killed mycobacterium tuberculosis (H37RA, Difco in mineral oil)). 0.05 ml was administered intradermally at a plantar site on the right hind leg of each rat. The test materials were given orally (by gavage) in 0.5% methylcelluose, at a dose level of 20 milligrams per kilo body weight, and given once per day for 14 days. The administration was started the day after sensitization. The left hind paw was measured just before sensitization and on Day 14, and the plantar edema inhibitory rate and the body weight gain rate were determined in comparison with the nonsensitized rat groups. The paw weights for each group in each test run were averaged. Activity was calculated as follows: [formula]
The Anti-inflammatory response is the difference in the mean foot volume. […] FIG. 4.

[4] = target: Protein Kinase C, Non-Select.; assay: Protein Kinase C, Non-Select. enzyme assay; assay type: biochemical, rat; conditions: historical value; read-out: ^1IC, (IC50 of reference compound)
Experimental: (§2) The peptide was further screened in vitro in a variety of enzyme and biochemical assays. Methods employed were adapted from the scientific literature to maximize reliability and reproducibility. The primary literature reference for each assay is listed in Table 11 opposite the results for each assay.
(§3) Results presented in Table 10, “Results,” are the average of duplicate determinations, unless otherwise noted.
(§4) Reference compounds were tested concurrently at 5 concentrations as an integral part of each assay to ensure the validity of the results obtained.
Enzyme assays were performed under conditions described in Table 8, “Experimental Conditions.”. The commercial suppliers and catalog numbers of substrates employed in this study are given in Table 7, “Material Sources.” The name, commercial source, and catalog numbers of concurrent reference compounds (controls) employed in this study are given in Table 9, “Reference Compound Data.” The reaction catalyzed by each enzyme is listed in Table 8, “Experimental Conditions.”
Biochemical assay results are presented in Table 10, as the percent inhibition of specific binding or activity, and unless noted are the average of duplicate tubes tested at each concentration.

PAF-induced mortality = assay: Platelet Activating Factor (PAF) Antagonism; assay type: in vivo, mouse; conditions: Peptide 100 mg/kg, WEB-2086 3 mg/kg
Experimental: as §1
Groups of 5 male ICR mice weighing 22±2 gms were employed. At dose of 100 mg/kg test substance dissolved in a vehicle of distilled water were administered orally. The control group received vehicle alone. At 60 minutes after dosing, the animals were injected intravenously PAF-acether ([…] IV, dissolved in 0.25% BSA). One hour later, the survival animals were recorded. The prevention of PAF-induced mortality in 50 percent or more (≧50%) of mice indicated significant activity.

[5] = tested on: oxazolone-induced ear swelling; assay: Immune Suppression, Cellular (oxazolone ear thickness); assay type: in vivo, mouse; conditions: IP, Peptide 100 mg/kg × 5, Cyclophosphamide 30 mg/kg × 5
Experimental: as §1
Groups of 5 ICR derived male mice weighing 22±1 gms were used. The preshaved abdominal surface was sensitized by application of oxazolone 0.1 ml of 5% solution. […] After additional four days, the animals were challenged by secondary application of oxazolone (0.025 ml of 5% solution) to the right ear. After a further 24 hours, each mouse was sacrificed and ear thickness measured with a Dyer Model micrometer gauge. A 30 percent or more (≧30%) decrease relative to the vehicle control group was considered significant and indicated possible immunosuppressant activity.

Histamine H3 = target: T2, Histamine H3 (Rattus norvegicus, UniProt Q9QYN8); assay: Histamine H3 radioligand binding; conditions: historical value
T2 construct: rat brain; from tissue; host or cells: rat brain
Experimental: as §2, §3, §4
Radioligand binding assays were performed under conditions described in Table 8, “Experimental Conditions.” Radioligands employed in this study are given in Table 8, and commercial sources and catalog numbers of the radioligands are provided in Table 7, “Material Sources.” Unlabeled, blocking ligands employed this study are listed in Table 8, “Experimenal Conditions,” along with the commercial sources and catalog number of the unlabeled ligand. The concurrent reference compound (control) employed in each assay is listed in Table 9, “Reference Compound Data,” along with the commercial supplier and catalog number of the compound. […]
Maximum total binding and nonspecific binding were determined each time each assay was run. […]
Where inhibition constants (Ki) are presented, the Ki values were calculated using the equation of Cheng and Prusoff (Cheng, Y., Prusoff, W. H., Biochem. Pharmacol. […], 1973) using the observed IC50 of the tested compound, the concentration of radioligand employed in the assay, and the historical values for the Kd of the ligand (obtained experimentally). Where presented, the Hill Coefficient (nH), defining the scope of the competitive binding curve, was calculated using GraphPad Prism. […] Where IC50, Ki, and/or Hill Slope data is presented without Standard Error of the Mean (SEM), data are insufficient to be quantitative, and the values presented (Ki, IC50, nH) should be interpreted with caution. […]

T1 sequence (Q9JI35 whole entry): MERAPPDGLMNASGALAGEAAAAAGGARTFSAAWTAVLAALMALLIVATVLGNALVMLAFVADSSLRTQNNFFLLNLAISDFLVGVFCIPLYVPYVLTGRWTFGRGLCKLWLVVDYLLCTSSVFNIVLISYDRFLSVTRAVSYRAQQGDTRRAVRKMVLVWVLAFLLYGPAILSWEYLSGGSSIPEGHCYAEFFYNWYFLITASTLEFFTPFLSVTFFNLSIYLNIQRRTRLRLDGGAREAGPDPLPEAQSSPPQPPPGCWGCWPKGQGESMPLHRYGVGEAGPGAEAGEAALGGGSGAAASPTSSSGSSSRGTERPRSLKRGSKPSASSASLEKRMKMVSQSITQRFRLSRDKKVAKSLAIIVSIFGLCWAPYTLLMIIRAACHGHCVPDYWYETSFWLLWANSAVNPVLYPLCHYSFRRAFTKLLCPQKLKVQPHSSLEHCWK
T2 sequence (Q9QYN8 whole entry): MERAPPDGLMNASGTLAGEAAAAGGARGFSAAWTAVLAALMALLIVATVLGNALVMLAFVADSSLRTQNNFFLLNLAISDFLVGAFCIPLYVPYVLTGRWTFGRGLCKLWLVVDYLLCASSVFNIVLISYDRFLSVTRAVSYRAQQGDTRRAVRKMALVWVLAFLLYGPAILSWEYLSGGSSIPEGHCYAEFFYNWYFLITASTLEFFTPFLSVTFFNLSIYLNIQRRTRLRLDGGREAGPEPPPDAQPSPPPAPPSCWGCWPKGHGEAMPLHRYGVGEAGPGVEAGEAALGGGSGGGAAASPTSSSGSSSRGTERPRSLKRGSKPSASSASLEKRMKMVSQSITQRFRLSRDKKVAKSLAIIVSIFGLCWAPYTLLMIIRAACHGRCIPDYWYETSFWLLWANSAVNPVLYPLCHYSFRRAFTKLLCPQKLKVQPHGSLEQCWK

Compound: LEU-PRO-PRO-SER-ARG [synthetic peptide (crude 60%)]
- % tumor inhibition (Sarcoma 180 tumor; I.P. injections or gavage on days 1-5, 6 mice): 58.6%
- Mean tumor wt. gain, gm (Sarcoma 180 tumor; net tumor weight, I.P. injections or gavage on days 1-5, 6 mice): 1.45 gm

Compound: C[C@@H](N)Cc1c[nH]cn1 [R (α)-Methylhistamine, R-α-Methyl histamine, reference compound]
- Inc. of TP X ± SEM ([1]; group mean, N=3): 11.3 ± 7.2 cm H2O
- Inc. of TP Ind. ([1]; individual guinea pig, tracheal pressure after ovalbumin 50 μg/kg IV): 8.5 cm H2O and 25.0 cm H2O and 0.5 cm H2O
- % INH. ([1]; inhibition of induced bronchoconstriction relative to vehicle): 61.6%
- Agonism, Ave. (histamine H3 receptor; average of two preparations): 100%
- Agonism (histamine H3 receptor; individual preparation): 100%

Compound: O=C(O)c1cc(/N=N/c2ccc(S(=O)(=O)Nc3ccccn3)cc2)ccc1O [Sulfasalazine]
- Ratio Net ([2]; group mean minus blank-control): 0.181%
- Ratio Ind., X (group mean) ([2]; group mean): 0.551%
- Ratio Ind. (colon-to-body weight ratio) ([2]; individual rat, Colon (g)/8th B.W. × 100%): 0.496% and 0.508% and 0.650%
- % INH. ([2]; reduction in colon-to-body weight ratio relative to vehicle control): 49%

Compound: S=C(NC1CCCCC1)N1CCC(c2cnc[nH]2)CC1 [Thioperamide]
- Agonism, Ave. (histamine H3 receptor; average of two preparations): 0%
- Antagonism, Ave. (histamine H3 receptor; average of two preparations): 93%
- Antagonism (histamine H3 receptor; individual preparation, reduction of 0.3 μM R(α)-methylhistamine-induced relaxation): 90% and 96%
- Agonism (histamine H3 receptor; individual preparation): 0%

Compound: CCCCC1C(=O)N(c2ccccc2)N(c2ccccc2)C1=O [Phenylbutazone]
- anti-inflammatory response (percent inhibition) [3]: 112.2%

Compound: CC1CNCCN1S(=O)(=O)c1cccc2cnccc12 (stereo not drawn) [Peptide H-7, reference compound]
- IC50 [4]: 35000 nM

Compound: Cc1nnc2n1-c1sc(CCC(=O)N3CCOCC3)cc1C(c1ccccc1Cl)=NC2 [WEB-2086, reference compound]
- % Protection (PAF-induced mortality; PO one hour before PAF-acether 100 μg/kg IV): 60%
- No. of Survival (PAF-induced mortality; of 5 mice, one hour after PAF-acether 100 μg/kg IV, PO one hour before): 3

Compound: C[C@]12CCC(=O)C=C1CC[C@@H]1[C@@H]2[C@@H](O)C[C@@]2(C)[C@H]1CC[C@]2(O)C(=O)CO [hydrocortisone]
- anti-inflammatory response (percent inhibition) [3]: 132.6%

Compound: O=P1(N(CCCl)CCCl)NCCCO1 (stereo not drawn) [Cyclophosphamide, Cyclophosphamide Monohydrate]
- % INH. ([5]; decrease of net ear thickness relative to vehicle control): 51%
- Thickness Net, X (group mean) ([5]; group mean): 13.4 × 0.1 mm
- Thickness Net ([5]; individual mouse, R. Ear minus L. Ear, Monohydrate): 16 × 0.1 mm and 10 × 0.1 mm and 14 × 0.1 mm and 7 × 0.1 mm and 20 × 0.1 mm
- Thickness R. Ear ([5]; individual mouse, challenged right ear, 24 hours after oxazolone challenge, Monohydrate): 38 × 0.1 mm and 26 × 0.1 mm and 32 × 0.1 mm and 23 × 0.1 mm and 40 × 0.1 mm
- Thickness L. Ear ([5]; individual mouse, left ear, Monohydrate): 22 × 0.1 mm and 16 × 0.1 mm (2×) and 18 × 0.1 mm and 20 × 0.1 mm

Compound: CNCCc1cnc[nH]1 [NAMH]
- IC50 (Histamine H3; read-out: ^1IC, (IC50 of reference compound)): 2.9 nM
- Ki (Histamine H3; read-out: ^1K1 (Ki of reference ligand)): 0.75 nM
